Source: US9303017B2, “2,5-disubstituted-pyridyl nicotinic ligands, and methods of use thereof” (Georgetown University, priority 2011, dated 2016)

Tests used:
α3β4 nAChR = α3β4 nAChR (Rattus norvegicus (Rat), UniProt P04757+P12392); assay: [3H]-epibatidine competition binding, α3β4; conditions: Table 1; mean of 3 to 5 measurements
Description: (§1) In Vitro Binding Affinities for nAChR Subtypes. […] To determine selectivities of these compounds in binding assays among the three predominant nAChR subtypes, α3β4, α4β2 and α7, the ratios of Ki values (α3β4/α4β2 and α7/α4β2) were determined.
(§2) Cell Lines and Cell Culture. The cell lines expressing defined rat nAChR subtypes were established previously by stably transfecting HEK 293 cells with rat nAChR subunit genes. The cell line expressing human α4β2 nAChRs, YXα4β2H1, was established recently. These cell lines were maintained in minimum essential medium (MEM) supplemented with 10% fetal bovine serum, 100 units/mL penicillin G, […] and selective antibiotics at 37° C. with 5% CO2 in a humidified incubator. Fetal bovine serum was provided by Gemini Bio-Products (Woodland, Calif.). Tissue culture medium and antibiotics were obtained from Invitrogen Corporation (Carlsbad, Calif.), unless otherwise stated.
(§3) Briefly, cultured cells at >80% confluence were removed from their flasks (80 cm^2) with a disposable cell scraper and placed in 10 mL of 50 mM Tris.HCl buffer (pH 7.4, 4° C.). The cell suspension was centrifuged at 10,000×g for 5 min and the pellet was collected. The cell pellet was then homogenized in 10 mL buffer with a polytron homogenizer and centrifuged at 36,000 g for 10 min at 4° C. The membrane pellet was resuspended in fresh buffer, and aliquots of the membrane preparation were used for binding assays. […] Bound and free ligands were separated by vacuum filtration through Whatman GF/C filters treated with 0.5% polyethylenimine. The filter-retained radioactivity was measured by liquid scintillation counting. Specific binding was defined as the difference between total binding and nonspecific binding. Data from competition binding assays were analyzed using Prism 5 (GraphPad Software, San Diego, Calif.).
(§4) Pharmacological Properties. We measured the in vitro binding affinities of the ligands for defined receptor subtypes (α2β2, α2β4, α3β2, α3β4, α4β2, α4β4, α6β2, α6β4, and α7) expressed in stably transfected cell lines. […] Rat forebrain homogenates were included to allow comparison between the heterologous and native α4β2 and α7 nAChRs. See Table 1 for binding affinity values (Ki) of the ligands at the three major nAChR subtypes (α3β4. α4β2 and α7).

α7 nAChR = α7 nAChR (Rattus norvegicus (Rat), UniProt Q05941); assay type: binding; conditions: Table 1; mean of 3 to 5 measurements
Description: as §1, §2, §3, §4

Chain of α7 nAChR (Q05941 23-502 limits assumed): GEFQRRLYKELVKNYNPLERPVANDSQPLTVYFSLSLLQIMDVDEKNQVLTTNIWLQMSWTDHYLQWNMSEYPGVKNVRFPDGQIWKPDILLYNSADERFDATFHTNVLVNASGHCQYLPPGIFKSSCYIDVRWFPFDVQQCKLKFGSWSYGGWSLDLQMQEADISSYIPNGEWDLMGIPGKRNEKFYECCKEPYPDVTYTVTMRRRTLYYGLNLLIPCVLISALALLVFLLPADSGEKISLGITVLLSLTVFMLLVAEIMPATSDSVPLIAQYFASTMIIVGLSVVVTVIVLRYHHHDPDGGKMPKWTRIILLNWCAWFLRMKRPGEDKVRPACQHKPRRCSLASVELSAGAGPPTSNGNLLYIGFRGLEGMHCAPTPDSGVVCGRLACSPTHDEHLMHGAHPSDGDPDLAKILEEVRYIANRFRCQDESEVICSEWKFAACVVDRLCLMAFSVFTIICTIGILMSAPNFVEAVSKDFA
Chain of α3β4 nAChR (P04757 26-499): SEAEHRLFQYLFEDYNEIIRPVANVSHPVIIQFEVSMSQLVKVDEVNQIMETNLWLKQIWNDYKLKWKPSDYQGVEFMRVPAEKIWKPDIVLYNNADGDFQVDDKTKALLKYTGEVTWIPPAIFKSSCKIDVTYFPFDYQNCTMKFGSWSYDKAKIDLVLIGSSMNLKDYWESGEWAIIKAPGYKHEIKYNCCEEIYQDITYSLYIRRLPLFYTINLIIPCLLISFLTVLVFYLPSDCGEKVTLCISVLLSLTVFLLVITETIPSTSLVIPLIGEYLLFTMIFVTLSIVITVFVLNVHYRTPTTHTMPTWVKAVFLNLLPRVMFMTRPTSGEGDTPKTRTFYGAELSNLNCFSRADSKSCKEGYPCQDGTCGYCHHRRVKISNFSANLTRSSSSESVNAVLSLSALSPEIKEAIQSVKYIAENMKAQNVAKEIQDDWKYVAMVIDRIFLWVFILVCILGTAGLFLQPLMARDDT
Chain of α3β4 nAChR (P12392 21-495): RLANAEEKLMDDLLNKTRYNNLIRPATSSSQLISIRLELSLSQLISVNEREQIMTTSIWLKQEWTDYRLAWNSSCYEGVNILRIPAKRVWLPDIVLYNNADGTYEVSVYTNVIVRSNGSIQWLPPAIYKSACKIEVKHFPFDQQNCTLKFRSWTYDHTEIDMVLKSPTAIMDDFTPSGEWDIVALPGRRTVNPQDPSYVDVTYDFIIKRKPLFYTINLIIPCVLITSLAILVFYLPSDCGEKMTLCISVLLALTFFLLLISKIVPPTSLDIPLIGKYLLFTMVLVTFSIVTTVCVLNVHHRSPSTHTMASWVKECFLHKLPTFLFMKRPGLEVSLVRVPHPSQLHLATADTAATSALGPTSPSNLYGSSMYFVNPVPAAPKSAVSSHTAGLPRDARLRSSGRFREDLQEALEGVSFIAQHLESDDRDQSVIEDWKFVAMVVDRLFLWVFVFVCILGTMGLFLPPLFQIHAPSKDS

CCCCC#Cc1cnc(C)c(OC[C@@H]2CCN2)c1 [(S)-15, (S)-3-(azetidin-2-ylmethoxy)-5-(hex-1-ynyl)-2-methylpyridine]
Ki (α3β4 nAChR): 230 µM | Ki (α7 nAChR): 93 µM
